Assay results from patent publication US8748417B2, “Amino-pyrrolidine-azetidine diamides as monoacylglycerol lipase inhibitors” (Janssen Pharmaceutica, NV, priority 2010, dated 2014).
Changes are numbered by the printed parent chain.

Tests used:
[1] = system: CFA-induced paw radiant heat hypersensitivity; assay: CFA-induced paw radiant heat hypersensitivity; assay type: in vivo; conditions: rat, 30 mg/kg p.o., 20% HPβCD, last time point 300 min; for inhibition in vivo at 30 mg/kg: po, 5 h, group mean values, read-out: Method 1: peak % reversal; for Method 2: peak % reversal: individual animal values
Description: Each rat was placed in a test chamber on a warm glass surface and allowed to acclimate for approximately 10 min. A radiant thermal stimulus (beam of light) was focused through the glass onto the plantar surface of each hind paw in turn. The thermal stimulus was automatically shut off by a photoelectric relay when the paw was moved or when the cut-off time was reached (20 sec for radiant heat at ˜5 amps). An initial (baseline) response latency to the thermal stimulus was recorded for each animal prior to the injection of complete Freund's adjuvant (CFA). Twenty-four hours following intraplantar CFA injection, the response latency of the animal to the thermal stimulus was re-evaluated and compared to the animal's baseline response time. […] Immediately following the post-CFA latency assessment, the indicated test compound or vehicle was administered orally. Post-compound treatment withdrawal latency was assessed at fixed time intervals, typically 30, 60, 120, 180, and 300 min. • The percent reversal (% R) of hypersensitivity was calculated in one of two different ways: 1) using group mean values or 2) using individual animal values. More specifically: • Method 1. For all compounds, the % R of hypersensitivity was calculated using the mean value for groups of animals at each time point according to the following formula: % reversal=[(group treatment response−group CFA response)/(group baseline response−group CFA response)]×100 • Results are given for the maximum % reversal observed for each compound at any time point tested. • Method 2. For some compounds, the % R of hypersensitivity was calculated separately for each animal according to the following formula: % reversal=[(individual treatment response−individual CFA response)/(individual baseline response−individual CFA response)]×100. • Results are given as a mean of the maximum % reversal values calculated for each individual animal.

[2] = target: T1, purified wild type MGL (wt-MGLL 6H-11-313) (Homo sapiens, UniProt Q99685); assay: MGL enzyme activity assay (4MU-B cleavage), wild type MGL; assay type: biochemical; conditions: wild type MGL 5 nM, 4MU-B 10 μM, 37° C.; read-out: MGL wild type inh IC50
T1 construct: purified wild type MGL (wt-MGLL 6H-11-313)
T1 sequence (Q99685 1-303): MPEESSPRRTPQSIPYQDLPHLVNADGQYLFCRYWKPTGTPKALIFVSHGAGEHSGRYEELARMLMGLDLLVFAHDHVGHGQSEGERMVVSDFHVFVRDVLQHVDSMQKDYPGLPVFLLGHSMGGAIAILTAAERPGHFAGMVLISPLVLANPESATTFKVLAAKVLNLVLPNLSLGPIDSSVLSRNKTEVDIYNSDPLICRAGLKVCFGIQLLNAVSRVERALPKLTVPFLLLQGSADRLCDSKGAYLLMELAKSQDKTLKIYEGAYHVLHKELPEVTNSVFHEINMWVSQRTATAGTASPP
Procedure, shortened: (§1)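 Enzyme in 20 mM PIPES pH 7.0, 150 mM NaCl, 0.001% Tween 20 with 4MU-B at 10 μM final and MGL at 5 nM final; compounds 17 to 0.0003 μM final, enzyme added last. Fluorescence (ex 335/em 440 nm) followed at 37° C for 5 min; IC50 from fit of fractional activity versus inhibitor concentration.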

[3] = system: MGL (rat brain homogenate); assay: 2-AG accumulation assay in rat brain homogenate; assay type: biochemical; conditions: compound 1 μM, percent of vehicle 2-AG accumulation
Procedure, shortened: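 Rat brain homogenate was incubated with compound for 15 min at 37° C., after which CaCl2 was added to a final concentration of 10 mM and incubation continued for 15 min at 37° C. in 5 mL total. Reactions were stopped with 6 mL of 2:1 chloroform/methanol, and 2-AG accumulated in the organic phase was quantified by HPLC/MS.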

[4] = target: T2, purified mutant MGL (mut-MGLL 11-313 L179S L186S) (Homo sapiens, UniProt Q99685, L169S/L176S); assay: MGL enzyme activity assay (4MU-B cleavage), mutant MGL; assay type: biochemical; conditions: mutant MGL 5 nM, 4MU-B 10 μM, 37° C.; read-out: MGL mutant inh IC50
T2 construct: purified mutant MGL (mut-MGLL 11-313 L179S L186S)
T2 sequence (Q99685 1-303 L169S/L176S): T1 sequence (Q99685 1-303) with L169S, L176S
Procedure, shortened: as §1

[5] = system: murine model of acute inflammation; conditions: Comelli et al., Brit J Pharmacol, 2007; cited from earlier work

## O=C(c1ccc2c(-c3cccc(C(F)(F)F)c3)c[nH]c2c1)N1CC(N[C@H]2CCN(C(=O)c3ccccc3)C2)C1 [Cpd 103, (3S)-1-(Phenylcarbonyl)-N-[1-({3-[3-(trifluoromethyl)phenyl]-1H-indol-6-yl}carbonyl)azetidin-3-yl]pyrrolidin-3-amine]
[1]
  inhibition in vivo at 30 mg/kg: 28%
[2]
  IC50: 15 nM
[3]
  Rat Brain 2AG % VehCntrl (%) @1 μM: 332%

## O=C(c1ccc(-c2cccc(C(F)(F)F)c2)cc1)N1CC(N[C@H]2CCN(C(=O)c3ccccc3)C2)C1 [Cpd 16, (3S)-1-(Phenylcarbonyl)-N-(1-{[3′-(trifluoromethyl)biphenyl-4-yl]carbonyl}azetidin-3-yl)pyrrolidin-3-amine]
[1]
  inhibition in vivo at 30 mg/kg: 78%
  Method 2: peak % reversal: 87.7%
[2]
  IC50: 16.7 nM
[4]
  IC50: < 5 nM
[3]
  Rat Brain 2AG % VehCntrl (%) @1 μM: 220%

## O=C(Nc1cccc(-c2ccccc2)c1)OC1CCCCC1 [URB602]
[5]
  antinociceptive effect: showed an antinociceptive effect

## O=C(c1ccc(-c2cccc(C(F)(F)F)c2)cc1)N1CC(N[C@H]2CN(C(=O)c3ccccc3)CC2F)C1 (single isomer, unassigned) [Cpd 63]
[1]
  inhibition in vivo at 30 mg/kg: -8.2%
[2]
  IC50: 66.6 nM
[4]
  IC50: 6.3 nM
[3]
  Rat Brain 2AG % VehCntrl (%) @1 μM: 696%

## O=C(c1ccc(-c2cccc(C(F)(F)F)c2)cc1)N1CC(N[C@H]2CCN(C(=O)c3cscn3)C2)C1 [Cpd 114, (3S)-1-(1,3-Thiazol-4-ylcarbonyl)-N-(1-{[3′-(trifluoromethyl)biphenyl-4-yl]carbonyl}azetidin-3-yl)pyrrolidin-3-amine]
[1]
  inhibition in vivo at 30 mg/kg: 25.1%
[2]
  IC50: 16.7 nM
[3]
  Rat Brain 2AG % VehCntrl (%) @1 μM: 311%

## Cc1c(C(=O)N2CC(N[C@H]3CCN(C(=O)c4ccccc4)C3)C2)sc2ccc(-c3ccc(C(F)(F)F)cc3)cc12 [Cpd 40, (3S)-N-[1-({3-Methyl-5-[4-(trifluoromethyl)phenyl]-1-benzothiophen-2-yl}carbonyl)azetidin-3-yl]-1-(phenylcarbonyl)pyrrolidin-3-amine]
[1]
  inhibition in vivo at 30 mg/kg: 15.9%
  Method 2: peak % reversal: 17.3%
[2]
  IC50: 16 nM
[4]
  IC50: 18.9 nM
[3]
  Rat Brain 2AG % VehCntrl (%) @1 μM: 1145%

## Cn1cc(-c2cccc(C(F)(F)F)c2)c2ccc(C(=O)N3CC(N[C@H]4CCN(C(=O)c5nccs5)C4)C3)cc21 [Cpd 162, (3S)-N-[1-({1-Methyl-3-[3-(trifluoromethyl)phenyl]-1H-indol-6-yl}carbonyl)azetidin-3-yl]-1-(1,3-thiazol-2-ylcarbonyl)pyrrolidin-3-amine]
[1]
  inhibition in vivo at 30 mg/kg: 69.7%
[2]
  IC50: 6.3 nM
[3]
  Rat Brain 2AG % VehCntrl (%) @1 μM: 911%

## O=C(c1ccc2c(-c3cccc(C(F)(F)F)c3)c[nH]c2c1)N1CC(N[C@H]2CCN(C(=O)c3nccs3)C2)C1 [Cpd 105, (3S)-1-(1,3-Thiazol-2-ylcarbonyl)-N-[1-({3-[3-(trifluoromethyl)phenyl]-1H-indol-6-yl}carbonyl)azetidin-3-yl]pyrrolidin-3-amine]
[1]
  inhibition in vivo at 30 mg/kg: 37.2%
[2]
  IC50: 18 nM
[3]
  Rat Brain 2AG % VehCntrl (%) @1 μM: 812%

## O=C(c1ccc2c(ccn2-c2ccc(F)cc2)c1)N1CC(N[C@H]2CCN(C(=O)c3nccs3)C2)C1 [Cpd 159, (3S)-N-(1-{[1-(4-Fluorophenyl)-1H-indol-5-yl]carbonyl}azetidin-3-yl)-1-(1,3-thiazol-2-ylcarbonyl)pyrrolidin-3-amine]
[1]
  inhibition in vivo at 30 mg/kg: 56.5%
[2]
  IC50: 6 nM
[3]
  Rat Brain 2AG % VehCntrl (%) @1 μM: 476%
